These results are taken from patent US20140206682A1, “COMPOUNDS AND COMPOSITIONS AS PDGFR KINASE INHIBITORS” (NOVARTIS PHARMACEUTICALS UK LIMITED, priority 2011, published 2014).

SMILES strings stand for the structures. Where only a bound is given, the exact number is not on record here.

The first experiment deals with PDGFR. In words: Rat A10 cell proliferation assay. The format is cell-based. The settings on record: Table 1; Rat A10 cells, recombinant rat PDGF-BB, CellTiter-Glo after 68 hours. As to the method:
Compounds of Formula (I) provided herein were assayed to measure their capacity to inhibit c-kit and PDGFR kinases using the appropriate assay described below: c-Kit inhibition was evaluated using the Mo7e cell proliferation assay, and PDGFR inhibition was evaluated using the Rat A10 cell proliferation assay and the Human TG/HA-VSMC cell proliferation assay.
Rat A10 cells (ATCC) were resuspended in DMEM supplemented with 1% FBS and 10 ng/mL recombinant rat PDGF-BB at 20,000 cells/mL. The cells were aliquoted into 384 well plates at 50 μL/well and incubated for 4 hours at 37° C. 0.5 μL of test compound 3-fold serially diluted in DMSO was added to each well. The plates were returned to the incubator for a further 68 hours. 25 μL of CellTiter-Glo (Promega) was added to each well and the plates were incubated on the bench for 15 minutes. Luminescence was then read using a CLIPR CCD camera (Molecular Devices).
(In general: ATP-based viability assays read luminescence as a measure of living cells.)
Regarding `CN(C)CCCOc1ccc(-c2ccn3c(C(=O)Nc4cc(C(=O)NC5Cc6ccccc6C5O)ccc4F)cnc3c2)cn1` (stereo not drawn) [F13, 7-{6-[3-(dimethylamino)propoxy]pyridin-3-yl}-N-{2-fluoro-5-[(1-hydroxy-2,3-dihydro-1H-inden-2-yl)carbamoyl]phenyl}imidazo[1,2-a]pyridine-3-carboxamide], the IC50 came to 56 nM. The same measure, in the same setting: to `O=C(NC[C@@H](O)c1ccc(Cl)cc1)c1ccc(F)c(NC(=O)c2cnc3ccccn23)c1` [F121, N-(5-{[(2S)-2-(4-chlorophenyl)-2-hydroxyethyl]carbamoyl}-2-fluorophenyl)imidazo[1,2-a]pyridine-3-carboxamide] belongs 13 nM. For the compound `O=C(NC(CO)c1ccccc1)c1ccc(F)c(NC(=O)c2cnc3ccccn23)c1` (stereo not drawn) [F4, N-{2-fluoro-5-[(2-hydroxy-1-phenylethyl)carbamoyl]phenyl}imidazo[1,2-a]pyridine-3-carboxamide], the IC50 amounted to 89 nM. Take `Cc1ccc(C(=O)N[C@H]2c3ccccc3C[C@@H]2O)cc1NC(=O)c1cnc2ccccn12` [F23, N-(5-{[(1S,2S)-2-hydroxy-2,3-dihydro-1H-inden-1-yl]carbamoyl}-2-methylphenyl)imidazo[1,2-a]pyridine-3-carboxamide]: the IC50 came to 21 nM.

As to `Cc1ccn2c(C(=O)Nc3cc(C(=O)N[C@@H]4c5ccccc5C[C@@H]4O)ccc3F)cnc2c1` [F26, N-(2-fluoro-5-{[(1R,2S)-2-hydroxy-2,3-dihydro-1H-inden-1-yl]carbamoyl}phenyl)-7-methylimidazo[1,2-a]pyridine-3-carboxamide], the IC50 was found to be 49 nM. On the same count and under the same terms, to `O=C(N[C@@H]1c2cc(F)ccc2C[C@@H]1O)c1ccc(F)c(NC(=O)c2cnc3ccc(F)cn23)c1` [F113, 6-fluoro-N-(2-fluoro-5-{[(1R,2S)-6-fluoro-2-hydroxy-2,3-dihydro-1H-inden-1-yl]carbamoyl}phenyl)imidazo[1,2-a]pyridine-3-carboxamide] belongs 113 nM; to `CCC[C@@H](CO)NC(=O)c1ccc(F)c(NC(=O)c2cnc3ccccn23)c1` [F110, N-(2-fluoro-5-{[(2S)-1-hydroxypentan-2-yl]carbamoyl}phenyl)imidazo[1,2-a]pyridine-3-carboxamide], 115 nM. In the case of `O=C(N[C@@H]1CCCCC[C@H]1O)c1ccc(F)c(NC(=O)c2cnc3ccccn23)c1` [F12, N-(2-fluoro-5-{[(1R,2R)-2-hydroxycycloheptyl]carbamoyl}phenyl)imidazo[1,2-a]pyridine-3-carboxamide], the IC50 worked out at 79 nM. Turning to `O=C(NC[C@@H]1CCCC[C@H]1O)c1ccc(F)c(NC(=O)c2cnc3ccccn23)c1` [F116, N-[2-fluoro-5-({[(1S,2R)-2-hydroxycyclohexyl]methyl}carbamoyl)phenyl]imidazo[1,2-a]pyridine-3-carboxamide], the IC50 was 64 nM. Consider `O=C(N[C@@H]1c2ccccc2C[C@@H]1O)c1ccc(F)c(NC(=O)c2cnc3ccccn23)c1` [F5, N-(2-fluoro-5-{[(1R,2S)-2-hydroxy-2,3-dihydro-1H-inden-1-yl]carbamoyl}phenyl)imidazo[1,2-a]pyridine-3-carboxamide], for which the IC50 stood at 35 nM.

The experiment is the same for the next values; noted with them: Table 2; Rat A10 cells, recombinant rat PDGF-BB, CellTiter-Glo after 68 hours.
Turning to `O=C(N[C@H]1c2ccccc2C[C@H]1O)c1ccc(F)c(NC(=O)c2cnc3cc(N4CCOCC4)ccn23)c1` [F71, N-(2-fluoro-5-{[(1S,2R)-2-hydroxy-2,3-dihydro-1H-inden-1-yl]carbamoyl}phenyl)-7-(morpholin-4-yl)imidazo[1,2-a]pyridine-3-carboxamide], the IC50 was 2180 nM. The same measure, in the same setting: in the case of `C[C@H](NC(=O)c1ccc(F)c(NC(=O)c2cnc3ccccn23)c1)[C@@H](O)c1ccccc1` [F95, N-(2-fluoro-5-{[(1S,2S)-1-hydroxy-1-phenylpropan-2-yl]carbamoyl}phenyl)imidazo[1,2-a]pyridine-3-carboxamide] it was 219 nM. `[2H]c1c([2H])c([2H])n2c(C(=O)Nc3cc(C(=O)N[C@@H]4c5ccccc5C[C@@H]4O)ccc3F)cnc2c1[2H]` [F83, N-(2-fluoro-5-{[(1R,2S)-2-hydroxy-2,3-dihydro-1H-inden-1-yl]carbamoyl}phenyl)-5,6,7,8-tetrahydrogenioimidazo[1,2-a]pyridine-3-carboxamide]: the IC50 came out at 289 nM. Regarding `O=C(N[C@@H]1Cc2ccccc2[C@H]1O)c1ccc(F)c(NC(=O)c2cnc3ccccn23)c1` [F37, N-(2-fluoro-5-{[(1R,2R)-1-hydroxy-2,3-dihydro-1H-inden-2-yl]carbamoyl}phenyl)imidazo[1,2-a]pyridine-3-carboxamide], the IC50 was determined as 242 nM. Consider `O=C(NC(CO)c1ccccc1)c1cccc(NC(=O)c2cnc3ccccn23)c1` (stereo in doubt) [F44, N-(3-{[(1S)-2-hydroxy-1-phenylethyl]carbamoyl}phenyl)imidazo[1,2-a]pyridine-3-carboxamide], for which the IC50 amounted to 311 nM.

For the compound `O=C(N[C@@H]1CCSC[C@H]1O)c1ccc(F)c(NC(=O)c2cnc3ccccn23)c1` [F105, N-(2-fluoro-5-{[(3S,4R)-3-hydroxythian-4-yl]carbamoyl}phenyl)imidazo[1,2-a]pyridine-3-carboxamide], the IC50 was 840 nM. Consider `O=C(N[C@@H](c1ccccc1)[C@H](O)CO)c1ccc(F)c(NC(=O)c2cnc3ccccn23)c1` [F101, N-(5-{[(1S,2S)-2,3-dihydroxy-1-phenylpropyl]carbamoyl}-2-fluorophenyl)imidazo[1,2-a]pyridine-3-carboxamide], for which the half-maximal inhibitory concentration (IC50) worked out at 429 nM. Regarding `O=C(NCC1(O)CCNCC1)c1ccc(F)c(NC(=O)c2cnc3ccccn23)c1` [F100, N-(2-fluoro-5-{[(4-hydroxypiperidin-4-yl)methyl]carbamoyl}phenyl)imidazo[1,2-a]pyridine-3-carboxamide], the IC50 is greater than 9020 nM.

In the case of `O=C(N[C@@H]1Cc2ccccc2[C@@H]1O)c1ccc(F)c(NC(=O)c2cnc3ccccn23)c1` [F38, N-(2-fluoro-5-{[(1S,2R)-1-hydroxy-2,3-dihydro-1H-inden-2-yl]carbamoyl}phenyl)imidazo[1,2-a]pyridine-3-carboxamide], the IC50 stood at 248 nM. The same measure, in the same setting: in the case of `O=C(NC[C@@H](O)c1cccc(O)c1)c1ccc(F)c(NC(=O)c2cnc3ccccn23)c1` [F97, N-(2-fluoro-5-{[(2S)-2-hydroxy-2-(3-hydroxyphenyl)ethyl]carbamoyl}phenyl)imidazo[1,2-a]pyridine-3-carboxamide] it was 668 nM. For `O=C(N[C@@H]1CCCC[C@H]1O)c1ccc(F)c(NC(=O)c2cnc3ccccn23)c1` [F56, N-(2-fluoro-5-{[(1R,2R)-2-hydroxycyclohexyl]carbamoyl}phenyl)imidazo[1,2-a]pyridine-3-carboxamide], the IC50 was found to be 521 nM. For `Cc1ccc2ncc(C(=O)Nc3cc(C(=O)N[C@@H]4c5ccc(Cl)cc5C[C@@H]4O)ccc3F)n2c1` (stereo in doubt) [F41, N-(5-{[(1R,2S)-5-chloro-2-hydroxy-2,3-dihydro-1H-inden-1-yl]carbamoyl}-2-fluorophenyl)-6-methylimidazo[1,2-a]pyridine-3-carboxamide], the IC50 was found to be 272 nM. Still for that read-out and setting: to `Cc1ccc2ncc(C(=O)Nc3cc(C(=O)N[C@@H]4c5ccccc5C[C@@H]4O)c(F)cc3F)n2c1` [F87, N-(2,4-difluoro-5-{[(1R,2S)-2-hydroxy-2,3-dihydro-1H-inden-1-yl]carbamoyl}phenyl)-6-methylimidazo[1,2-a]pyridine-3-carboxamide] belongs 2860 nM. Regarding `O=C(NCC1(O)CCCCC1)c1cccc(NC(=O)c2cnc3ccccn23)c1` [F64], the IC50 is 1100 nM.

The IC50 is the concentration needed to halve the response being measured.
